Assay results: patent US12448399B2, “Cereblon-based KRAS degrading PROTACs and uses related thereto” (Arvinas Operations, Inc., priority 2023, dated 2025)

Target: T1, KRas-G12D (Homo sapiens, UniProt P01116, G12D)
T1 construct: insert the HiBiT tag onto the N-terminus of one or more of the endogenous KRas alleles; host or cells: AsPC-1 HiBiT-KRasG12D knock-in clone (one tagged allele, two untagged KRasG12D alleles)
Experiment: HiBiT Degradation Assay (G12D), AsPC-1 HiBiT-KRasG12D cells, 24 hr
Assay type: cell-based
Conditions: for Dmax: ASPC1, AsPC-1 cells, maximum degradation observed; for DC50: AsPC-1 cells
How it was run: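 AsPC-1 cells with CRISPR N-terminal HiBiT knock-in on one endogenous KRasG12D allele, treated 24 hr at 37° C with compound titrations in 0.5% DMSO. Lytic HiBiT luminescence normalized to DMSO, fitted to a 4-parameter model for DC50 and Dmax. Parallel alamar blue (4 hr) checked viability.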

T1 sequence (P01116 1-188 isoform P01116-2 G12D): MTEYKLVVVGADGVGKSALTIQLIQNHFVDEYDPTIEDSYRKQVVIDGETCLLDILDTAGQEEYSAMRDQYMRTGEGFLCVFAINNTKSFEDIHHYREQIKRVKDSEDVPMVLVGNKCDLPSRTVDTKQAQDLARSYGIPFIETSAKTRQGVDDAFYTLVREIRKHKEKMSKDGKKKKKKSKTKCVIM

Work on C#Cc1c(F)ccc2cc(O)cc(-c3ncc4c(N5CC6CCC(C5)N6)nc(OCCN5CCC(CN6CC7(CCN(c8cc(C)c9c(c8F)CN(C8CCC(=O)NC8=O)C9=O)CC7)C6)CC5)nc4c3F)c12 (stereo not shown) [Compound 154, 3-(5-{2-[(1-{2-[(4-{3,8-diazabicyclo[3.2.1]octan-3-yl}-7-(8-ethynyl-7-fluoro-3-hydroxynaphthalen-1-yl)-8-fluoropyrido[4,3-d]pyrimidin-2-yl)oxy]ethyl}piperidin-4-yl)methyl]-2,7-diazaspiro[3.5]nonan-7-yl}-4-fluoro-7-methyl-1-oxo-2,3-dihydro-1H-isoindol-2-yl)piperidine-2,6-dione] yielded a Dmax of over 70% and a DC50 of under 5.1 µM.
Work on C#Cc1c(F)ccc2cccc(-c3ncc4c(N5CC6CCC(C5)N6)nc(OCCN5CCC(CN6CC7(CCN(c8ccc9c(c8F)CN(C8CCC(=O)NC8=O)C9=O)CC7)C6)CC5)nc4c3F)c12 (stereo not shown) [Compound 155] yielded a DC50 of over 1 µM.
C#Cc1c(F)ccc2cccc(-c3ncc4c(N5CC6CCC(C5)N6)nc(OCCN5CCC6(CC5)CCN(CC5CCN(c7ccc8c(c7F)CN(C7CCC(=O)NC7=O)C8=O)CC5)CC6)nc4c3F)c12 (stereo not shown) [Compound 156] gave a DC50 of over 1 µM.
C#Cc1c(F)ccc2cccc(-c3ncc4c(N5CC6CCC(C5)N6)nc(OCCN5CCC(CC6CCN(CC7CCN(c8cccc9c8CN(C8CCC(=O)NC8=O)C9=O)CC7)CC6)CC5)nc4c3F)c12 (stereo not shown) [Compound 157] gave a DC50 of over 1 µM.
With CCc1cccc2c(F)c(O)cc(-c3ncc4c(N5CC6CCC(C5)N6)nc(OCCN5CCC(CC6CCN(c7cccc8c7CN(C7CCC(=O)NC7=O)C8=O)CC6)CC5)nc4c3F)c12 (stereo not shown) [Compound 158] the Dmax was at most 25% and the DC50 was over 1 µM.
For C#Cc1c(F)ccc2cc(O)cc(-c3ncc4c(N5CC6CCC(C5)N6)nc(OCCN5CCC(CN6CCN(CC7CCN(c8ccc9c(c8F)n(C(C)C)c(=O)n9C8CCC(=O)NC8=O)CC7)CC6)CC5)nc4c3F)c12 (stereo not shown) [Compound 159, 3-{5-[4-({4-[(1-{2-[(4-{3,8-diazabicyclo[3.2.1]octan-3-yl}-7-(8-ethynyl-7-fluoro-3-hydroxynaphthalen-1-yl)-8-fluoropyrido[4,3-d]pyrimidin-2-yl)oxy]ethyl}piperidin-4-yl)methyl]piperazin-1-yl}methyl)piperidin-1-yl]-4-fluoro-2-oxo-3-(propan-2-yl)-2,3-dihydro-1H-1,3-benzodiazol-1-yl}piperidine-2,6-dione], the Dmax was over 70% and the DC50 was under 5.1 µM.
For C#Cc1c(F)ccc2cc(O)cc(-c3ncc4c(N5CC6CCC(C5)N6)nc(OCCN5CCC(C)(CN6CCN(CC7CCN(c8ccc9c(c8)n(C)c(=O)n9C8CCC(=O)NC8=O)CC7)CC6)CC5)nc4c3F)c12 (stereo not shown) [Compound 160, 3-{5-[4-({4-[(1-{2-[(4-{3,8-diazabicyclo[3.2.1]octan-3-yl}-7-(8-ethynyl-7-fluoro-3-hydroxynaphthalen-1-yl)-8-fluoropyrido[4,3-d]pyrimidin-2-yl)oxy]ethyl}-4-methylpiperidin-4-yl)methyl]piperazin-1-yl}methyl)piperidin-1-yl]-3-methyl-2-oxo-2,3-dihydro-1H-1,3-benzodiazol-1-yl}piperidine-2,6-dione], the Dmax was over 70% and the DC50 was under 5.1 µM.
In the case of C#Cc1c(F)ccc2cc(O)cc(-c3ncc4c(N5CC6CCC(C5)N6)nc(OCCN5CCC(C)(CC6CCN(CC7CCN(c8ccc9c(c8)n(C)c(=O)n9C8CCC(=O)NC8=O)CC7)CC6)CC5)nc4c3F)c12 (stereo not shown) [Compound 161, 3-{5-[4-({4-[(1-{2-[(4-{3,8-diazabicyclo[3.2.1]octan-3-yl}-7-(8-ethynyl-7-fluoro-3-hydroxynaphthalen-1-yl)-8-fluoropyrido[4,3-d]pyrimidin-2-yl)oxy]ethyl}-4-methylpiperidin-4-yl)methyl]piperidin-1-yl}methyl)piperidin-1-yl]-3-methyl-2-oxo-2,3-dihydro-1H-1,3-benzodiazol-1-yl}piperidine-2,6-dione], the Dmax is reported as over 70% and the DC50 is reported as under 5.1 µM.
C#Cc1c(F)ccc2cc(O)cc(-c3ncc4c(N5CC6CCC(C5)N6)nc(OCCN5CCN(CC6CCN(CC7CCN(c8ccc9c(c8)n(C)c(=O)n9C8CCC(=O)NC8=O)CC7)CC6)CC5(C)C)nc4c3F)c12 (stereo not shown) [Compound 162, 3-{5-[4-({4-[(4-{2-[(4-{3,8-diazabicyclo[3.2.1]octan-3-yl}-7-(8-ethynyl-7-fluoro-3-hydroxynaphthalen-1-yl)-8-fluoropyrido[4,3-d]pyrimidin-2-yl)oxy]ethyl}-3,3-dimethylpiperazin-1-yl)methyl]piperidin-1-yl}methyl)piperidin-1-yl]-3-methyl-2-oxo-2,3-dihydro-1H-1,3-benzodiazol-1-yl}piperidine-2,6-dione] showed a Dmax of over 70% and a DC50 of under 5.1 µM.
C#Cc1c(F)ccc2cc(O)cc(-c3ncc4c(N5CC6CCC(C5)N6)nc(OCCN5CCC(CC6CCN(CC7CCN(c8ccc9c(c8F)CN([C@@H]8CCC(=O)NC8=O)C9=O)CC7)CC6)CC5)nc4c3F)c12 [Compound 163, (3R)-3-{5-[4-({4-[(1-{2-[(4-{3,8-diazabicyclo[3.2.1]octan-3-yl}-7-(8-ethynyl-7-fluoro-3-hydroxynaphthalen-1-yl)-8-fluoropyrido[4,3-d]pyrimidin-2-yl)oxy]ethyl}piperidin-4-yl)methyl]piperidin-1-yl}methyl)piperidin-1-yl]-4-fluoro-1-oxo-2,3-dihydro-1H-isoindol-2-yl}piperidine-2,6-dione] showed a Dmax of over 70% and a DC50 of under 5.1 µM.
C#Cc1c(F)ccc2cc(O)cc(-c3ncc4c(N5CC6CCC(C5)N6)nc(OC[C@@H]5C[C@@H](OC6CCN(CC7CN(c8ccc9c(c8)CN(C8CCC(=O)NC8=O)C9=O)C7)CC6)CN5C)nc4c3F)c12 (stereo partly drawn) [Compound 164, 3-(5-{3-[(4-{[(3R,5S)-5-{[(4-{3,8-diazabicyclo[3.2.1]octan-3-yl}-7-(8-ethynyl-7-fluoro-3-hydroxynaphthalen-1-yl)-8-fluoropyrido[4,3-d]pyrimidin-2-yl)oxy]methyl}-1-methylpyrrolidin-3-yl]oxy}piperidin-1-yl)methyl]azetidin-1-yl}-1-oxo-2,3-dihydro-1H-isoindol-2-yl)piperidine-2,6-dione] gave a Dmax of over 70% and a DC50 of under 5.1 µM.
C#Cc1c(F)ccc2cc(O)cc(-c3ncc4c(N5CC6CCC(C5)N6)nc(OC[C@@H]5C[C@@H](OC6CCN(CC7CCN(c8ccc9c(c8)CN(C8CCC(=O)NC8=O)C9=O)CC7)CC6)CN5CC)nc4c3F)c12 (stereo partly drawn) [Compound 165, 3-(5-{4-[(4-{[(3R,5S)-5-{[(4-{3,8-diazabicyclo[3.2.1]octan-3-yl}-7-(8-ethynyl-7-fluoro-3-hydroxynaphthalen-1-yl)-8-fluoropyrido[4,3-d]pyrimidin-2-yl)oxy]methyl}-1-ethylpyrrolidin-3-yl]oxy}piperidin-1-yl)methyl]piperidin-1-yl}-1-oxo-2,3-dihydro-1H-isoindol-2-yl)piperidine-2,6-dione] showed a Dmax of over 70% and a DC50 of under 5.1 µM.
C#Cc1c(F)ccc2cc(O)cc(-c3ncc4c(N5CC6CCC(C5)N6)nc(OCCN5CCC(CN6CCC(CC7CCN(c8ccc9c(c8F)n(C)c(=O)n9C8CCC(=O)NC8=O)CC7)CC6)CC5)nc4c3F)c12 (stereo not shown) [Compound 166, 3-{5-[4-({1-[(1-{2-[(4-{3,8-diazabicyclo[3.2.1]octan-3-yl}-7-(8-ethynyl-7-fluoro-3-hydroxynaphthalen-1-yl)-8-fluoropyrido[4,3-d]pyrimidin-2-yl)oxy]ethyl}piperidin-4-yl)methyl]piperidin-4-yl}methyl)piperidin-1-yl]-4-fluoro-3-methyl-2-oxo-2,3-dihydro-1H-1,3-benzodiazol-1-yl}piperidine-2,6-dione] showed a Dmax of over 70% and a DC50 of under 5.1 µM.
Molecule C#Cc1c(F)ccc2cc(O)cc(-c3ncc4c(N5CC6CCC(C5)N6)nc(OCCN5CCC(CN6CCC(CC7CCN(c8ccc9c(c8F)n(C(C)C)c(=O)n9C8CCC(=O)NC8=O)CC7)CC6)CC5)nc4c3F)c12 (stereo not shown) [Compound 167, 3-{5-[4-({1-[(1-{2-[(4-{3,8-diazabicyclo[3.2.1]octan-3-yl}-7-(8-ethynyl-7-fluoro-3-hydroxynaphthalen-1-yl)-8-fluoropyrido[4,3-d]pyrimidin-2-yl)oxy]ethyl}piperidin-4-yl)methyl]piperidin-4-yl}methyl)piperidin-1-yl]-4-fluoro-2-oxo-3-(propan-2-yl)-2,3-dihydro-1H-1,3-benzodiazol-1-yl}piperidine-2,6-dione] has a DC50 of under 5.1 µM.
In the case of C#Cc1c(F)ccc2cc(O)cc(-c3ncc4c(N5CC6CCC(C5)N6)nc(OCCN5CCC(CN6CCN(CC7CCN(c8ccc9c(c8F)CN(C8CCC(=O)NC8=O)C9=O)CC7)CC6)CC5(C)C)nc4c3F)c12 (stereo not shown) [Compound 168, 3-{5-[4-({4-[(1-{2-[(4-{3,8-diazabicyclo[3.2.1]octan-3-yl}-7-(8-ethynyl-7-fluoro-3-hydroxynaphthalen-1-yl)-8-fluoropyrido[4,3-d]pyrimidin-2-yl)oxy]ethyl}-2,2-dimethylpiperidin-4-yl)methyl]piperazin-1-yl}methyl)piperidin-1-yl]-4-fluoro-1-oxo-2,3-dihydro-1H-isoindol-2-yl}piperidine-2,6-dione], the Dmax is reported as over 70% and the DC50 is reported as under 5.1 µM.
In the case of C#Cc1c(F)ccc2cc(O)cc(-c3ncc4c(N5CC6CCC(C5)N6)nc(OCCN5CCC(CN6CCN(CC7CCN(c8ccc9c(c8F)CN(C8CCC(=O)NC8=O)C9=O)CC7)C(C)(C)C6)CC5)nc4c3F)c12 (stereo not shown) [Compound 169, 3-{5-[4-({4-[(1-{2-[(4-{3,8-diazabicyclo[3.2.1]octan-3-yl}-7-(8-ethynyl-7-fluoro-3-hydroxynaphthalen-1-yl)-8-fluoropyrido[4,3-d]pyrimidin-2-yl)oxy]ethyl}piperidin-4-yl)methyl]-2,2-dimethylpiperazin-1-yl}methyl)piperidin-1-yl]-4-fluoro-1-oxo-2,3-dihydro-1H-isoindol-2-yl}piperidine-2,6-dione], the Dmax is reported as over 70% and the DC50 is reported as under 5.1 µM.
